Test [1] addresses T1, Peroxisome proliferator-activated receptor alpha (Homo sapiens) (UniProt Q07869).
T1 sequence (whole entry): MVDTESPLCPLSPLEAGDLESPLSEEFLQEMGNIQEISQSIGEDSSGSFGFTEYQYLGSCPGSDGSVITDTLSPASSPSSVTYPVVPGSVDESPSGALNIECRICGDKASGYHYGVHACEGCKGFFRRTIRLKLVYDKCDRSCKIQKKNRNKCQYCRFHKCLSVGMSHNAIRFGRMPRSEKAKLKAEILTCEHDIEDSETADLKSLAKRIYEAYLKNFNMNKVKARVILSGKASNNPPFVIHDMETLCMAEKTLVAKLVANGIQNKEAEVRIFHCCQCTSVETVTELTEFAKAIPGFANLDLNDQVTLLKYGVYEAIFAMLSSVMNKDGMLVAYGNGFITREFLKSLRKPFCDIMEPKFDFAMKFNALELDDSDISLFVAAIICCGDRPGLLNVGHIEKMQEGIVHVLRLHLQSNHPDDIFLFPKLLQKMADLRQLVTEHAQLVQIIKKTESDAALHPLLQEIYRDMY
In words: Binding affinity to PPARalpha (unknown origin) at 30 uM by TR-FRET based LanthaScreen competitive binding assay relative to control. In general terms: In TR-FRET formats the signal depends on donor and acceptor labels being close together.

For test [2], the target named is T2, Peroxisome proliferator-activated receptor delta (Homo sapiens) (UniProt Q03181).
T2 sequence (whole entry): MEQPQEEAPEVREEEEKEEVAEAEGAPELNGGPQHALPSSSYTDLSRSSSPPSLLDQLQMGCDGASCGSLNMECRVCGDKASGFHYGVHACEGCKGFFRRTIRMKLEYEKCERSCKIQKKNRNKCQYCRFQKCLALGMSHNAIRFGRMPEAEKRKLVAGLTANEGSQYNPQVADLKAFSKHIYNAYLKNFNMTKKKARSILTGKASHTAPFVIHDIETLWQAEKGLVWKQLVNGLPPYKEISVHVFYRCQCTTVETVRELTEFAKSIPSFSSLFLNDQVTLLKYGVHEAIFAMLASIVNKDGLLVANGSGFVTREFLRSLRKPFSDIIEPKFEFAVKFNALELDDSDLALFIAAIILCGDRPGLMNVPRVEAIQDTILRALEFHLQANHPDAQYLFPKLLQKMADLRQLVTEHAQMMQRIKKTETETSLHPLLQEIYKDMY
The experiment in a line: Binding affinity to PPARdelta (unknown origin) at 30 uM by TR-FRET based LanthaScreen competitive binding assay relative to control.

Test [3] has as its target T3, Peroxisome proliferator-activated receptor delta (Homo sapiens, UniProt Q03181).
T3 sequence (Q03181 whole entry): T2 sequence (whole entry)
The experiment in a line: Binding affinity to PPARdelta (unknown origin) assessed as inhibition constant by TR-FRET based LanthaScreen competitive binding assay.

Test [4] concerns the target T4, Peroxisome proliferator-activated receptor gamma (Homo sapiens, UniProt P37231).
T4 sequence (P37231 whole entry): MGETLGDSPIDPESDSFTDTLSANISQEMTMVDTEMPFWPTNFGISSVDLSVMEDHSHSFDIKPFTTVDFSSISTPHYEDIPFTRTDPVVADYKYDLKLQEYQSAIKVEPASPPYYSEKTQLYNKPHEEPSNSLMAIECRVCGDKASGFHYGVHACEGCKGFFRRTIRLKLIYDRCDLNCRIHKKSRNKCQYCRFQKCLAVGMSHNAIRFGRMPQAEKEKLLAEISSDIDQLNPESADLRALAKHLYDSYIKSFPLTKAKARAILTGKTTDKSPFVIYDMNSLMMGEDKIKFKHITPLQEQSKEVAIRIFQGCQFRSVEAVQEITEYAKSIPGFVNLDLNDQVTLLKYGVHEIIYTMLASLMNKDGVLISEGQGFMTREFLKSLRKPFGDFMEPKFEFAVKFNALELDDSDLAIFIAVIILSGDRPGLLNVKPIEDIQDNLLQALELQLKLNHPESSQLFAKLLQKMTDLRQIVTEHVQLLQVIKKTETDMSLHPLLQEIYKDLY
In words: Binding affinity to PPARgamma (unknown origin) assessed as inhibition constant by TR-FRET based LanthaScreen competitive binding assay.

The target in test [5] is T3, Peroxisome proliferator-activated receptor delta. In words: Antagonist activity at PPARdelta LBD (unknown origin) assessed as increase in fluorescein labeled SMRT-ID2 corepressor peptide requirement by TR-FRET assay.

On to `O[C@@H]1C[C@@H]2C[C@]2(Cn2cnc3c(NCc4cccc(F)c4)ncnc32)[C@@H]1O`, for which the Activity in test [1] is 2.7%; in test [2], 7.4%.

In turn, `O[C@@H]1[C@H](O)C=C[C@H]1Cn1cnc2c(NCc3cccc(Cl)c3)nc(Cl)nc21` yielded an Activity in test [1] of 4%. In test [3], the Ki – broadly, a measure of affinity in units of concentration, obtained from inhibition or displacement – stood at 2490 nM.

Turning to `O[C@@H]1[C@H](O)[C@@H]2C[C@@H]2[C@H]1Cn1cnc2c(NCc3cccc(Br)c3)ncnc21`, the Activity in test [1] is 8.3%; in test [2] it was 20%.

`O[C@@H]1[C@H](O)[C@@H]2C[C@@H]2[C@H]1Cn1cnc2c(NCc3cccc(F)c3)ncnc21`: the results for the Activity in test [1] and in test [2] were 7.1% and 0.8%, respectively.

`O[C@@H]1[C@H](O)[C@@H]2C[C@@H]2[C@H]1Cn1cnc2c(NCc3ccc(I)cc3)nc(Cl)nc21` returned an Activity in test [1] of 2.7%. Also, in test [3], the Ki came to 1150 nM.

Regarding `O[C@@H]1[C@H](O)[C@@H]2C[C@@H]2[C@H]1Cn1cnc2c(NCc3ccccc3I)nc(Cl)nc21`, the Activity in test [1] was determined as 3.8%; in test [2] it was 34.6%. Moreover, the Ki in test [4] was found to be 2300 nM.

As for `O[C@H]1[C@H](Cn2cnc3c(NCc4cccc(Cl)c4)ncnc32)CC[C@H]1O`, the Activity in test [1] is 4%; in test [2], 2%.

In turn, `COC(=O)c1sccc1S(=O)(=O)Nc1ccc(Nc2ccccc2)cc1OC` displayed an Activity in test [1] of 6.4%.

With `O[C@@H]1[C@H](O)C=C[C@H]1Cn1cnc2c(NCc3cccc(I)c3)ncnc21`, the Activity in test [1] was found to be 4.1%; in test [2], 7.3%.

For `O[C@H]1[C@H](Cn2cnc3c(NCc4cccc(F)c4)nc(Cl)nc32)CC[C@H]1O`, the Activity in test [1] was 6.5%; in test [2] it was 37%.

As to `O[C@@H]1[C@H](O)C=C[C@H]1Cn1cnc2c(NCc3cccc(Cl)c3)ncnc21`, the Activity in test [1] was found to be 0.8%; in test [2], 5.9%.

Regarding `O[C@@H]1[C@H](O)[C@@H]2C[C@@H]2[C@H]1Cn1cnc2c(NCc3cccc(Cl)c3)ncnc21`, the figures for the Activity in test [1] and in test [2] were 6% and 13.4%, respectively.

`O[C@@H]1C[C@@H]2C[C@]2(Cn2cnc3c(NCc4cccc(Cl)c4)ncnc32)[C@@H]1O`: the Activity in test [1] was found to be 6.9%; in test [2], 2%.

`O[C@@H]1[C@H](O)[C@@H]2C[C@@H]2[C@H]1Cn1cnc2c(NCc3cccc(I)c3)ncnc21`: the Activity in test [1] was 4.6%; in test [2] (filed as antagonist), 45.8%.

As to `O[C@@H]1C[C@@H]2C[C@]2(Cn2cnc3c(NCc4cccc(Br)c4)ncnc32)[C@@H]1O`, the Activity came out at 5.6% in test [1] and 9.2% in test [2].

In test [1], `O[C@H]1[C@H](Cn2cnc3c(NCc4cccc(Cl)c4)nc(Cl)nc32)CC[C@H]1O` returned an Activity of 5.1%. Moreover, in test [3], the Ki worked out at 1620 nM.

Regarding `O[C@@H]1[C@H](O)C=C[C@H]1Cn1cnc2c(NCc3cccc(F)c3)nc(Cl)nc21`, the Activity in test [1] turned out to be 7%; in test [2] it was 28.4%.

As to `O[C@H]1[C@H](Cn2cnc3c(NCc4cccc(Br)c4)ncnc32)CC[C@H]1O`, the Activity in test [1] was 6.6%; in test [2] it was 12.9%.

For the compound `COc1cccc(CNc2nc(Cl)nc3c2ncn3C[C@H]2[C@H](O)[C@H](O)[C@@H]3C[C@H]23)c1`, the Activity in test [1] amounted to 9.2%. For the same compound, the inhibitory constant (Ki) in test [3] was found to be 292 nM.

Take `O[C@@H]1C[C@@H]2C[C@]2(Cn2cnc3c(NCc4cccc(F)c4)nc(Cl)nc32)[C@@H]1O`: the values for the Activity in test [1] and in test [2] were 1.7% and 11.9%, respectively.

As to `O[C@@H]1[C@H](O)[C@@H]2C[C@@H]2[C@H]1Cn1cnc2c(NCc3cccc(F)c3)nc(Cl)nc21`, the Activity is 3.6% in test [1] and 46.3% in test [2] (filed as antagonist).

In the case of `O[C@H]1[C@H](Cn2cnc3c(NCc4cccc(I)c4)ncnc32)CC[C@H]1O`, the Activity in test [1] worked out at 5.3%; in test [2], 39.4%.

Turning to `O[C@@H]1[C@H](O)[C@@H]2C[C@@H]2[C@H]1Cn1cnc2c(NCc3cccc(Cl)c3)nc(Cl)nc21`, the Activity in test [1] came to 3.8%. Besides, in test [3], the Ki was found to be 978 nM.

In turn, `O[C@@H]1[C@H](O)CO[C@H]1Cn1cnc2c(NCc3cccc(Br)c3)nc(Cl)nc21` had an Activity in test [1] of 0.3%. Besides, the figures for the Ki in test [4] and in test [3] were 3600 nM and 374 nM, respectively. For the same compound, the EC50 (usually the concentration at which the effect is half-maximal) in test [5] turned out to be 26400 nM.

Consider `O[C@@H]1[C@H](O)C=C[C@H]1Cn1cnc2c(NCc3cccc(F)c3)ncnc21`, for which the Activity was 5.2% in test [1] and 2.4% in test [2].

As for `O[C@H]1[C@H](Cn2cnc3c(NCc4cccc(F)c4)ncnc32)CC[C@H]1O`, the values for the Activity in test [1] and in test [2] were 63% and 4.8%, respectively.

Regarding `O[C@@H]1[C@H](O)C=C[C@H]1Cn1cnc2c(NCc3cccc(Br)c3)ncnc21`, the Activity was 0.7% in test [1] and 4.2% in test [2].

Take `O[C@@H]1C[C@@H]2C[C@]2(Cn2cnc3c(NCc4cccc(I)c4)ncnc32)[C@@H]1O`: the Activity in test [1] amounted to 9.4%; in test [2], 8.6%.

As for `Cc1cc(SCc2sc(-c3ccc(C(F)(F)F)cc3)nc2C)ccc1OCC(=O)O`, in test [1], the Activity is 34.9%.

(Values after ChEMBL document CHEMBL5380837, “Structure-Activity Relationships of Truncated 1'-Homologated Carbaadenosine Derivatives as New PPARγ/δ Ligands: A Study on Sugar Puckering Affecting Binding to PPARs” (J Med Chem, 2023).)
